Experiment [1] concerns the target T1, PTPN2 (Homo sapiens, UniProt P17706).
T1 construct: expressed in transfected cells; host or cells: 293T.109 (HiBiT-PTPN2), derived from 293T WT (ATCC)
T1 sequence (P17706 1-415): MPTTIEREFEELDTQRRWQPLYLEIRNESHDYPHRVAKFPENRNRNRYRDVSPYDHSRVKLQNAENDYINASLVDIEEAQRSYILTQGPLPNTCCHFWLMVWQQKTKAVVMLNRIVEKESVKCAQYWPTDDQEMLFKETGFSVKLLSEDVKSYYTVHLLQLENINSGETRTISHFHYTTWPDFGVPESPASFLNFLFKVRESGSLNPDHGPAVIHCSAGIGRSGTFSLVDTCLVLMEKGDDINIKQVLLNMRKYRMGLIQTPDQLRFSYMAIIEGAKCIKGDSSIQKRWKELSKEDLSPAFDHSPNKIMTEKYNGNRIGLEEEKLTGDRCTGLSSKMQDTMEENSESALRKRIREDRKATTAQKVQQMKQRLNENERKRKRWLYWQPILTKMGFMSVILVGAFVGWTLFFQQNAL
In words: HiBiT PTPN2 degradation in 293T.109 (HiBiT-PTPN2) cells, 24 hours. Format: cell-based. The conditions noted are these: 293T.109 cells. In a few lines: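 293T cells stably expressing N-terminal HiBiT-tagged PTPN2 were treated for 24 h at 37 °C with compound in an 11-point half-log series from 10 μM top concentration, in duplicate. Remaining HiBiT-PTPN2 was measured by lytic luminescence, with untreated cells as the negative control and wells without lytic reagent as the positive control.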
(With HiBiT, luminescence reflects the tagged protein that the partner subunit can reach.)

Experiment [2] addresses T2, PTPN2 (Mus musculus, UniProt Q06180).
T2 construct: HiBiT; host or cells: B16F10.4
T2 sequence (Q06180 1-406): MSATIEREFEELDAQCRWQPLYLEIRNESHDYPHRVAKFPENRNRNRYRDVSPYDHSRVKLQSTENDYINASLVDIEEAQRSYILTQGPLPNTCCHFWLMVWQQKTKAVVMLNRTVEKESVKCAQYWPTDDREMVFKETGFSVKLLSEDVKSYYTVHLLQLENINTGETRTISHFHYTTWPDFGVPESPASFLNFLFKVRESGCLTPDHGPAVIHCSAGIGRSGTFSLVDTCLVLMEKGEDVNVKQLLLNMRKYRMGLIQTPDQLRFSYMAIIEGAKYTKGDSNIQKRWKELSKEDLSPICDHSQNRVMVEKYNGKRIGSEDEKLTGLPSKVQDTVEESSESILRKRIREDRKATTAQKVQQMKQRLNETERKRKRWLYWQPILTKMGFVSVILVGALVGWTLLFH
Briefly: HiBiT PTPN2 degradation in B16F10.4 cells, 24 hours. The class given is cell-based. In a few lines:
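PTPN2 degradation was measured via luminescence from the Nano-Glo® HiBiT Lytic Assay kit. Compounds were dispensed into 384-well plates at an 11-point half-log titration in duplicate, starting at 10 μM. Cells were added at 5000 per well and held at 37° C. with 5% CO2 for 24 hours. Untreated cells were the negative control and cells without lytic reagent the positive control. Lytic reagents were then added and luminescence read on an EnVision™ Multilabel Reader.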

SMILES strings stand for the structures.

As for `Cn1c(=O)n(C2CCC(=O)NC2=O)c2ccc(-c3ccc(CC(=O)Nc4ccc5c(F)c(N6CC(=O)NS6(=O)=O)c(O)cc5c4)cc3F)c(F)c21` (stereo not drawn) [Degrader 56], the figures for the DC50 at PTPN2 [1] and at PTPN2 [2] were 0.15 to 0.5 µM and 0.05 to 0.15 µM, respectively.
The corresponding values for `O=C1CCC(N2C(=O)c3cccc4c(N5CCC(CC(=O)Nc6ccc7c(F)c(N8CC(=O)NS8(=O)=O)c(O)cc7c6)CC5)ccc2c34)C(=O)N1` (stereo not drawn) [Degrader 143] are 0.05 to 0.15 µM and less than 0.05 µM.
The corresponding values for `Cn1c(=O)n(C2CCC(=O)NC2=O)c2cccc(N3CCC(CCNC(=O)Nc4ccc5c(F)c(N6CC(=O)NS6(=O)=O)c(O)cc5c4)CC3)c21` (stereo not drawn) [Degrader 62] are 0.15 to 0.5 µM and 0.15 to 0.5 µM.
The like results for `O=C1CCC(N2C(=O)c3cccc4c(N5CCC(CCNC(=O)Nc6ccc7c(F)c(N8CC(=O)NS8(=O)=O)c(O)cc7c6)CC5)ccc2c34)C(=O)N1` (stereo not drawn) [Degrader 53] were, in that order, less than 0.05 µM and less than 0.05 µM.
In the case of `Cn1nc(C2CCC(=O)NC2=O)c2ccc(C3CCN(CCNC(=O)c4ccc5c(F)c(N6CC(=O)NS6(=O)=O)c(O)cc5c4)CC3(F)F)cc21` (stereo not drawn) [Degrader 61], the DC50 at PTPN2 [1] and at PTPN2 [2] was 0.15 to 0.5 µM throughout.
In the case of `Cn1c(=O)n(C2CCC(=O)NC2=O)c2ccc(N3CCN(CNC(=O)Nc4ccc5c(F)c(N6CC(=O)NS6(=O)=O)c(O)cc5c4)CC3)cc21` (stereo not drawn) [Degrader 93], the DC50 on PTPN2 [1] and at PTPN2 [2] was 0.05 to 0.15 µM in each case.
For `C[C@@H](C(=O)Nc1ccc2c(F)c(N3CC(=O)NS3(=O)=O)c(O)cc2c1)C1CCN(c2ccc3c(c2)n(C)c(=O)n3C2CCC(=O)NC2=O)CC1` (stereo partly drawn) [Degrader 106], the half-maximal degradation concentration (DC50) on PTPN2 [1] and on PTPN2 [2] was 0.15 to 0.5 µM each time.
For `Cn1c(=O)n(C2CCC(=O)NC2=O)c2ccc(-n3cc(CC(=O)Nc4ccc5c(F)c(N6CC(=O)NS6(=O)=O)c(O)cc5c4)cn3)cc21` (stereo not drawn) [Degrader 153], the half-maximal degradation concentration (DC50) – broadly, the concentration at which degradation of the target reaches its halfway point – at PTPN2 [1] was in the range of 0.15 to 0.5 µM; at PTPN2 [2], 0.05 to 0.15 µM.
The corresponding values for `Cn1c(=O)n(C2CCC(=O)NC2=O)c2ccc(N3CCC(C(C)(C)C(=O)Nc4ccc5c(F)c(N6CC(=O)NS6(=O)=O)c(O)cc5c4)CC3)cc21` (stereo not drawn) [Degrader 118] are not below 0.5 µM and 0.15 to 0.5 µM.
As for `Cn1c(=O)n(C2CCC(=O)NC2=O)c2ccc([C@H]3CN(CC(=O)Nc4ccc5c(F)c(N6CC(=O)NS6(=O)=O)c(O)cc5c4)CC[C@@H]3F)cc21` (stereo partly drawn) [Degrader 142], the DC50 at PTPN2 [1] and at PTPN2 [2] was 0.15 to 0.5 µM each time.
As for `CCn1c(=O)n(C2CCC(=O)NC2=O)c2ccc(-c3ccc(CC(=O)Nc4ccc5c(F)c(N6CC(=O)NS6(=O)=O)c(O)cc5c4)cc3F)cc21` (stereo not drawn) [Degrader 47], the DC50 on PTPN2 [1] was 0.05 to 0.15 µM; at PTPN2 [2], less than 0.05 µM.
The corresponding values for `Cn1c(=O)n(C2CCC(=O)NC2=O)c2ccc(CC3CCN(C(=O)Nc4ccc5c(F)c(N6CC(=O)NS6(=O)=O)c(O)cc5c4)CC3)cc21` (stereo not drawn) [Degrader 34] are not below 0.5 µM and not below 0.5 µM.
Consider `Cn1c(=O)n(C2CCC(=O)NC2=O)c2ccc([C@@H]3CCN(CC(=O)Nc4ccc5c(F)c(N6CC(=O)NS6(=O)=O)c(O)cc5c4)C3)cc21` (stereo partly drawn) [Degrader 124], for which the half-maximal degradation concentration (DC50) at PTPN2 [1] was less than 0.05 µM; on PTPN2 [2], 0.15 to 0.5 µM.
With `CCn1c(=O)n(C2CCC(=O)NC2=O)c2ccc(C3CCN([C@H](CO)C(=O)Nc4ccc5c(F)c(N6CC(=O)NS6(=O)=O)c(O)cc5c4)CC3)cc21` (stereo partly drawn) [Degrader 63], the DC50 on PTPN2 [1] and on PTPN2 [2] was less than 0.05 µM each time.
Regarding `Cn1c(=O)n(C2CCC(=O)NC2=O)c2ccc(C3CN(CC(=O)Nc4ccc5c(F)c(N6CC(=O)NS6(=O)=O)c(O)cc5c4)CCC3F)cc21` (stereo not drawn) [Degrader 140], the DC50 on PTPN2 [1] is 0.05 to 0.15 µM; at PTPN2 [2], 0.15 to 0.5 µM.
Regarding `C[C@H]1CN(CC(=O)Nc2ccc3c(F)c(N4CC(=O)NS4(=O)=O)c(O)cc3c2)CCN1c1ccc2c(c1F)n(C)c(=O)n2C1CCC(=O)NC1=O` (stereo partly drawn) [Degrader 66], the DC50 at PTPN2 [1] was 0.15 to 0.5 µM; at PTPN2 [2], not below 0.5 µM.
For `Cc1cc(-c2ccc3c(c2)n(C)c(=O)n3C2CCC(=O)NC2=O)ccc1CC(=O)Nc1ccc2c(F)c(N3CC(=O)NS3(=O)=O)c(O)cc2c1` (stereo not drawn) [Degrader 79], the DC50 on PTPN2 [1] and at PTPN2 [2] was 0.05 to 0.15 µM each time.
For `Cn1c(=O)n(C2CCC(=O)NC2=O)c2ccc(C3CCN(C4CC(C(=O)Nc5ccc6cc(N7CC(=O)NS7(=O)=O)ccc6c5)C4)CC3(F)F)cc21` (stereo not drawn) [Degrader 102], the DC50 at PTPN2 [1] and at PTPN2 [2] was 0.05 to 0.15 µM in each case.
On to `Cn1c(=O)n(C2CCC(=O)NC2=O)c2ccc(Nc3ccc(CC(=O)Nc4ccc5c(F)c(N6CC(=O)NS6(=O)=O)c(O)cc5c4)cc3F)cc21` (stereo not drawn) [Degrader 71], for which the DC50 on PTPN2 [1] and on PTPN2 [2] was 0.05 to 0.15 µM each time.
Take `Cn1c(=O)n(C2CCC(=O)NC2=O)c2ccc([C@H]3CCCN(CC(=O)Nc4ccc5c(F)c(N6CC(=O)NS6(=O)=O)c(O)cc5c4)C3)cc21` (stereo partly drawn) [Degrader 151]: the half-maximal degradation concentration (DC50) on PTPN2 [1] and on PTPN2 [2] was 0.15 to 0.5 µM each time.
As to `Cn1c(=O)n(C2CCC(=O)NC2=O)c2ccc(-c3ccc4c(cnn4CC(=O)Nc4ccc5c(F)c(N6CC(=O)NS6(=O)=O)c(O)cc5c4)c3)cc21` (stereo not drawn) [Degrader 29], the results for the 50% degradation concentration (DC50) at PTPN2 [1] and at PTPN2 [2] were 0.05 to 0.15 µM and less than 0.05 µM, respectively.
The corresponding values for `Cn1c(=O)n(C2CCC(=O)NC2=O)c2ccc(N3CCC(CC(=O)Nc4ccc5c(F)c(N6CC(=O)NS6(=O)=O)c(O)cc5c4)CC3)cc21` (stereo not drawn) [Degrader 147] are 0.15 to 0.5 µM and 0.15 to 0.5 µM.
Regarding `Cn1c(=O)n(C2CCC(=O)NC2=O)c2ccc(N3[C@@H]4CC[C@H]3C[C@@H](CC(=O)Nc3ccc5c(F)c(N6CC(=O)NS6(=O)=O)c(O)cc5c3)C4)cc21` (stereo partly drawn) [Degrader 109], the DC50 at PTPN2 [1] and at PTPN2 [2] was 0.15 to 0.5 µM throughout.
On to `Cn1c(=O)n(C2CCC(=O)NC2=O)c2ccc(-c3ccc(NC(=O)Nc4ccc5c(F)c(N6CC(=O)NS6(=O)=O)c(O)cc5c4)cc3)cc21` (stereo not drawn) [Degrader 73], for which the DC50 on PTPN2 [1] and at PTPN2 [2] was 0.05 to 0.15 µM throughout.
As to `Cn1c(=O)n(C2CCC(=O)NC2=O)c2ccc(N3CC4(CC(OCC(=O)Nc5ccc6c(F)c(N7CC(=O)NS7(=O)=O)c(O)cc6c5)C4)C3)cc21` (stereo not drawn) [Degrader 96], the half-maximal degradation concentration (DC50) at PTPN2 [1] was 0.05 to 0.15 µM; at PTPN2 [2], 0.15 to 0.5 µM.
The corresponding values for `C[C@H]1CN(c2ccc3c(c2)n(C)c(=O)n3C2CCC(=O)NC2=O)CCN1CC(=O)Nc1ccc2c(F)c(N3CC(=O)NS3(=O)=O)c(O)cc2c1` (stereo partly drawn) [Degrader 90] are 0.15 to 0.5 µM and 0.05 to 0.15 µM.
The corresponding values for `Cn1c(=O)n(C2CCC(=O)NC2=O)c2ccc(-c3ccc(NCC4CC4C(=O)Nc4ccc5c(F)c(N6CC(=O)NS6(=O)=O)c(O)cc5c4)cc3)cc21` (stereo not drawn) [Degrader 108] are 0.05 to 0.15 µM and 0.05 to 0.15 µM.
The like results for `Cn1c(=O)n(C2CCC(=O)NC2=O)c2ccc(Oc3ccc(CC(=O)Nc4ccc5c(F)c(N6CC(=O)NS6(=O)=O)c(O)cc5c4)cc3)cc21` (stereo not drawn) [Degrader 76] were, in that order, 0.05 to 0.15 µM and 0.05 to 0.15 µM.
In the case of `C[C@@H]1CN(c2ccc3c(c2)n(C)c(=O)n3C2CCC(=O)NC2=O)CC[C@@H]1CC(=O)Nc1ccc2c(F)c(N3CC(=O)NS3(=O)=O)c(O)cc2c1` (stereo partly drawn) [Degrader 127], the DC50 on PTPN2 [1] and on PTPN2 [2] was 0.05 to 0.15 µM each time.
As to `Cn1cc(C(=O)Nc2ccc3c(F)c(N4CC(=O)NS4(=O)=O)c(O)cc3c2)c2ccc(-c3ccc4c(c3)n(C)c(=O)n4C3CCC(=O)NC3=O)cc21` (stereo not drawn) [Degrader 82], the DC50 on PTPN2 [1] and on PTPN2 [2] was 0.15 to 0.5 µM in each case.

These data come from patent US20240424111A1, “Degrader Compounds and Uses Thereof” (CALICO LIFE SCIENCES LLC, priority 2021, published 2024).
